Measurements taken from patent publication US20120328569A1, “INHIBITORS OF HEPATITIS C VIRUS NS5B POLYMERASE” (priority 2010, published 2012).

Each compound was assayed on HCV genotype 1b replicon (assay: HCV replicon assay, cell ELISA with antibody to replicon-encoded NS3/4A (genotype 1b replicon)). Details: Hepatitis C virus, 96 h, read-out: 1b IC50(nM), HCV genotype 1b replicon; 96 hours incubation; NS3/4A cell ELISA.
Assay type: cell-based, hepatitis C virus
Summary of the method: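 Replicon-harbouring cells carrying neomycin phosphotransferase were incubated 96 h with a compound dilution series without G418. Replication was quantified indirectly by a cell ELISA detecting replicon-encoded NS3/4A. IC50 values were calculated relative to DMSO control with a four-parameter fit.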

Compound	IC50
CNC(=O)c1c(-c2ccc(F)cc2)oc2cc(N(C)S(C)(=O)=O)c(-c3ccc(OC)c(-c4nc5c(F)cccc5o4)c3)cc12 [Example 411, 5-[3-(4-Fluoro-benzooxazol-2-yl)-4-methoxy-phenyl]-2-(4-fluoro-phenyl)-6-(methanesulfonyl-methyl-amino)-benzofuran-3-carboxylic acid methylamide]	7.1 nM
CNC(=O)c1c(-c2ccc(F)cc2)oc2cc(N(C)S(C)(=O)=O)c(-c3ccc(S(C)(=O)=O)c(-c4nc5c(Cl)cccc5o4)c3)cc12 [Example 420]	5.08 nM
CNC(=O)c1c(-c2ccc(F)cc2)oc2cc(N(C)S(C)(=O)=O)c(-c3cc(-c4nc5c(F)cccc5o4)c4oc(=O)[nH]c4c3)cc12 [Example 425]	3.04 nM
CNC(=O)c1c(-c2ccc(F)cc2)oc2cc(N(C)S(C)(=O)=O)c(-c3ccc(OC)c(-c4nc5c(CC#N)cccc5[nH]4)c3)cc12 [Example 427]	4.35 nM
CNC(=O)c1c(-c2ccc(F)cc2)oc2cc(N(C)S(C)(=O)=O)c(-c3ccc(OC)c(-c4nc5c(C(C)(C)C#N)cccc5o4)c3)cc12 [Example 428]	29.1 nM
CNC(=O)c1c(-c2ccc(F)cc2)oc2cc(N(C)S(C)(=O)=O)c(-c3ccc(CC#N)c(-c4nc5c(F)cccc5o4)c3)cc12 [Example 429]	4.91 nM
CNC(=O)c1c(-c2ccc(F)cc2)oc2cc(N(C)S(C)(=O)=O)c(-c3cc4c(c(-c5nc6c(F)cccc6o5)c3)OCCO4)cc12 [Example 436]	4.37 nM
CNC(=O)c1c(-c2ccc(F)cc2)oc2cc(N(C)S(C)(=O)=O)c(-c3ccc(-c4ccco4)c(-c4nc5c(F)cccc5o4)c3)cc12 [Example 478]	8.65 nM
CNC(=O)c1c(-c2ccc(F)cc2)oc2cc(N(C)S(C)(=O)=O)c(-c3ccc(-c4cnco4)c(-c4nc5c(F)cccc5o4)c3)cc12 [Example 479]	1.95 nM
CNC(=O)c1c(-c2ccc(F)cc2)oc2cc(N(C)S(C)(=O)=O)c(-c3ccc(-c4cnco4)c(-c4nc5c(Cl)cccc5o4)c3)cc12 [Example 480]	3.01 nM
CNC(=O)c1c(-c2ccc(F)cc2)oc2cc(N(C)S(C)(=O)=O)c(-c3ccc(N4CCOC4=O)c(-c4nc5c(F)cccc5o4)c3)cc12 [Example 483]	2.48 nM
CNC(=O)c1c(-c2ccc(F)cc2)oc2cc(N(C)S(C)(=O)=O)c(-c3ccc(N4CCNC4=O)c(-c4nc5c(F)cccc5o4)c3)cc12 [Example 484]	3.31 nM
CNC(=O)c1c(-c2ccc(F)cc2)oc2cc(N(C)S(C)(=O)=O)c(-c3csc(-c4nc5c(F)cccc5o4)c3)cc12 [Example 504]	1.53 nM
CNC(=O)c1c(-c2ccc(F)cc2)oc2cc(N(C)S(C)(=O)=O)c(-c3cnc(OC)c(-c4nc5c(F)cccc5o4)c3)cc12 [Example 507]	0.68 nM
CNC(=O)c1c(-c2ccc(F)cc2)oc2cc(N(C)S(C)(=O)=O)c(-c3cc(-c4nc5ncccc5o4)ccn3)cc12 [Example 509]	3 nM
CNC(=O)c1c(-c2ccc(F)cc2)oc2cc(N(C)S(C)(=O)=O)c(-c3cccc(-c4nc5c(o4)CCCC5(F)F)c3)cc12 [Example 515]	3.99 nM
CNC(=O)c1c(-c2ccc(F)cc2)oc2cc(N(C)S(C)(=O)=O)c(-c3cccc(-c4cc5c(o4)CCN(C(C)=O)C5)c3)cc12 [Example 517]	7 nM
CNC(=O)c1c(-c2ccc(F)cc2)oc2cc(N(C)S(C)(=O)=O)c(C#Cc3ccccc3)cc12 [Example 547]	23.2 nM
CNC(=O)c1c(-c2ccc(F)cc2)oc2cc(N(C)S(C)(=O)=O)c(-c3cccc(-n4nc5ccccc5c4-c4cccnc4)c3)cc12 [Example 549]	65.9 nM
CNC(=O)c1c(-c2ccc(F)cc2)oc2cc(N(C)S(C)(=O)=O)c(-c3ccc(OC)c(-c4nc5cc(F)cc(F)c5o4)c3)cc12 [Example 551]	1.3 nM
CNC(=O)c1c(-c2ccc(F)cc2)oc2cc(N(C)S(C)(=O)=O)c(-c3cc(C#N)cc(-c4cc5ccccc5[nH]4)c3)cc12 [Example 558]	5.81 nM
CNC(=O)c1c(-c2ccc(F)cc2)oc2cc(N(C)S(C)(=O)=O)c(-c3ccc4c(c3)-c3c(Cl)c5ccccc5n3C(C3CC3)O4)cc12 (stereo not drawn) [Example 588]	50.4 nM
CNC(=O)c1c(-c2ccc(F)cc2)oc2cc(N(C)S(C)(=O)=O)c(-c3ccc4c(c3)-c3[nH]c5ccccc5c3C(c3cccnc3)O4)cc12 (stereo not drawn) [Example 589]	3.38 nM
CNC(=O)c1c(-c2ccc(F)cc2)oc2cc(N(C)S(C)(=O)=O)c(-c3ccc4c(c3)-c3[nH]c5ccccc5c3C(C(C)(C)C)O4)cc12 (stereo not drawn) [Example 590]	44.1 nM
CNC(=O)c1c(-c2ccc(F)cc2)oc2cc(N(C)S(C)(=O)=O)c(-c3cccc(-c4cc5cc(F)ccc5n4CCO)c3)cc12 [Example 598]	3.43 nM
CNC(=O)c1c(-c2ccc(F)cc2)oc2cc(N(C)S(C)(=O)=O)c(-c3ccc(O)c(-c4nc5c(F)cccc5o4)c3)cc12 [Example 606, 5-(3(4-fluorobenzo[d]oxazol-2-yl)-4-hydroxyphenyl)-2(4-fluorophenyl)-N-methyl-6-(N-methylmethylsulfonamido)benzofuran-3-carboxamide]	9.32 nM
CNC(=O)c1c(-c2ccc(F)cc2)oc2cc(N(C)S(C)(=O)=O)c(-c3ccc(O)c(-c4nc5c(Cl)cccc5o4)c3)cc12 [Example 607]	27.1 nM
CNC(=O)c1c(-c2ccc(F)cc2)oc2cc(N(C)S(C)(=O)=O)c(-c3cc(-c4nc5cccc(F)c5o4)ccc3O)cc12 [Example 611]	11.1 nM

Same assay, conditions: Hepatitis C virus, 96 h, read-out: Replicon 1b IC50 (nM), HCV genotype 1b replicon cells, 96 hours incubation, NS3/4A ELISA readout

Compound	IC50
CNC(=O)c1c(-c2ccc(F)cc2)oc2cc(N(C)S(C)(=O)=O)c(-c3cccc(-c4cc5ccccc5[nH]4)c3)cc12 [Example 366, 5-(3-(1H-indol-2-yl)phenyl)-2-(4-fluorophenyl)-N-methyl-6-(N-methylmethylsulfonamido)benzofuran-3-carboxamide]	4.2 nM
CNC(=O)c1c(-c2ccc(F)cc2)oc2cc(N(C)S(C)(=O)=O)c(-c3cccc(-c4[nH]c5ccccc5c4Cl)c3)cc12 [Example 381]	5.1 nM
CNC(=O)c1c(-c2ccc(F)cc2)oc2cc(N(C)S(C)(=O)=O)c(-c3cccc(-c4[nH]c5ccccc5c4Br)c3)cc12 [Example 382, 5-(3-(3-bromo-1H-indol-2-yl)phenyl)-2-(4-fluorophenyl)-N-methyl-6-(N-methylmethylsulfonamido)benzofuran-3-carboxamide]	8.9 nM
CNC(=O)c1c(-c2ccc(F)cc2)oc2cc(N(C)S(C)(=O)=O)c(-c3cccc(-c4[nH]c5ncccc5c4CO)c3)cc12 [Example 383, 2-(4-fluorophenyl)-5-(3-(3-(hydroxymethyl)-1H-pyrrolo[2,3-b]pyridin-2-yl)phenyl)-N-methyl-6-(N-methylmethylsulfonamido)benzofuran-3-carboxamide]	2.5 nM
CNC(=O)c1c(-c2ccc(F)cc2)oc2cc(N(CCCO)S(C)(=O)=O)c(-c3cccc(-c4nc5ncccc5o4)c3)cc12 [Example 384, 2-(4-fluorophenyl)-6-(N-(3-hydroxypropyl)methylsulfonamido)-N-methyl-5-(3-(oxazolo[4,5-b]pyridin-2-yl)phenyl)benzofuran-3-carboxamide]	0.9 nM
CNC(=O)c1c(-c2ccc(F)cc2)oc2cc(N(CCN3CCOCC3)S(C)(=O)=O)c(-c3cccc(-c4nc5ncccc5o4)c3)cc12 [Example 397, 2-(4-fluorophenyl)-N-methyl-6-(N-(2-morpholinoethyl)methylsulfonamido)-5-(3-(oxazolo[4,5-b]pyridin-2-yl)phenyl)benzofuran-3-carboxamide]	3.6 nM
CNC(=O)c1c(-c2ccc(F)cc2)oc2cc(N(C)S(=O)(=O)c3ccccc3)c(-c3cccc(-c4nc5ncccc5o4)c3)cc12 [Example 400, 2-(4-fluorophenyl)-N-methyl-6-(N-methylphenylsulfonamido)-5(3-(oxazolo[4,5-b]pyridin-2-yl)phenyl)benzofuran-3-carboxamide]	303 nM
CNC(=O)c1c(-c2ccc(F)cc2)oc2cc(N(C)S(C)(=O)=O)c(-c3ccc(OC)c(-c4nc5c(F)cccc5o4)c3)cc12 [Example 402, 5-(3-(4-fluorobenzo[d]oxazol-2-yl)-4-methoxyphenyl)-2-(4-fluorophenyl)-N-methyl-6-(N-methylmethylsulfonamido)benzofuran-3-carboxamide]	0.9 nM
CNC(=O)c1c(-c2ccc(F)cc2)oc2cc(N(C)S(C)(=O)=O)c(-c3ccc(OC)c(-c4nc5c(C#N)cccc5o4)c3)cc12 [Example 403, 5-(3-(4-cyanobenzo[d]oxazol-2-yl)-4-methoxyphenyl)-2-(4-fluorophenyl)-N-methyl-6-(N-methylmethylsulfonamido)benzofuran-3-carboxamide]	3.8 nM
CNC(=O)c1c(-c2ccc(F)cc2)oc2cc(N(C)S(C)(=O)=O)c(-c3ccc(OC)c(-c4nc5cc(F)ccc5o4)c3)cc12 [Example 404]	2.6 nM
CNC(=O)c1c(-c2ccc(F)cc2)oc2cc(N(C)S(C)(=O)=O)c(-c3ccc(Cl)c(-c4nc5c(F)cccc5o4)c3)cc12 [Example 405]	4.7 nM
CNC(=O)c1c(-c2ccc(F)cc2)oc2cc(N(C)S(C)(=O)=O)c(-c3cc(Cl)cc(-c4nc5c(F)cccc5o4)c3)cc12 [Example 406]	15.1 nM
CNC(=O)c1c(-c2ccc(F)cc2)oc2cc(N(C)S(C)(=O)=O)c(-c3ccc(OC)c(-c4nc5cccc(C#N)c5o4)c3)cc12 [Example 407]	2.8 nM
CNC(=O)c1c(-c2ccc(F)cc2)oc2cc(N(C)S(C)(=O)=O)c(-c3ccc(OC)c(-c4nc5c(F)cc(F)cc5o4)c3)cc12 [Example 408]	3.8 nM
CNC(=O)c1c(-c2ccc(F)cc2)oc2cc(N(C)S(C)(=O)=O)c(-c3ccc(OC)c(-c4nc5c(F)ccc(F)c5o4)c3)cc12 [Example 409]	2.1 nM
CNC(=O)c1c(-c2ccc(F)cc2)oc2cc(N(C)S(C)(=O)=O)c(-c3ccc(OC)c(-c4nc5cc(F)cc(F)c5o4)c3)cc12 [Example 410]	0.5 nM

Same assay, conditions: read-out: 1b IC50; HCV genotype 1b replicon; 96 hours incubation; NS3/4A cell ELISA

Compound	IC50
CNC(=O)c1c(-c2ccc(F)cc2)oc2cc(N(CCF)S(C)(=O)=O)c(-c3cccc(-c4nc5ncccc5o4)c3)cc12 [Example 581]	0.5 nM
